# Assay results as given in ChEMBL document CHEMBL1201862, “PubChem BioAssay data set” (2004).
# Activity calls are given as the source filed them.
# Assays:
# [1] = target: Peroxisome proliferator-activated receptor gamma (Homo sapiens, UniProt P37231); experiment: PPARg transcriptional activation, reporter cells – cell-based, luminescence, assay provider, dose response (AID 504447); format: functional
# [2] = target: T1, Zinc finger protein mex-5 (Caenorhabditis elegans, UniProt Q9XUB2); experiment: potency of MEX-5 RNA-binding blockers – biochemical, C. elegans, fluorescence polarization, dose response (AID 1960)
# T1 sequence (Q9XUB2 whole entry): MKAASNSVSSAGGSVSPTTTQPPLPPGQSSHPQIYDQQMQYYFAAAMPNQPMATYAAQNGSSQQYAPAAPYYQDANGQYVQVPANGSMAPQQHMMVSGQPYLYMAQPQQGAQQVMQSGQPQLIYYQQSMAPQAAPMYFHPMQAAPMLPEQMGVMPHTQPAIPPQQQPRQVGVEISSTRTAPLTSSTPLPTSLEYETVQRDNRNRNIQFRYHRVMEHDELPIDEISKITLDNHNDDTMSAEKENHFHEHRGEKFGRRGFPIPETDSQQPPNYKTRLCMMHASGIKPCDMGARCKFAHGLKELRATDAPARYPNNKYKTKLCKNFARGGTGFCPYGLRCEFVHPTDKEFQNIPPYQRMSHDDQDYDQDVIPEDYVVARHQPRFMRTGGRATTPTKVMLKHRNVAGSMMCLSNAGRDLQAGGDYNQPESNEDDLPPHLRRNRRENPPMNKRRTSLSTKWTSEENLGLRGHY
# [3] = target: T2, RNA-binding protein pos-1 (Caenorhabditis elegans, UniProt G5EF15); experiment: disruptors of C. elegans POS-1 RNA interaction – biochemical, fluorescence polarization, dose response (AID 1964);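 note: purified POS-1 fused to maltose binding protein made in E. coli; potency of compounds blocking POS-1 binding to fluorescent RNA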
# T2 sequence (G5EF15 whole entry): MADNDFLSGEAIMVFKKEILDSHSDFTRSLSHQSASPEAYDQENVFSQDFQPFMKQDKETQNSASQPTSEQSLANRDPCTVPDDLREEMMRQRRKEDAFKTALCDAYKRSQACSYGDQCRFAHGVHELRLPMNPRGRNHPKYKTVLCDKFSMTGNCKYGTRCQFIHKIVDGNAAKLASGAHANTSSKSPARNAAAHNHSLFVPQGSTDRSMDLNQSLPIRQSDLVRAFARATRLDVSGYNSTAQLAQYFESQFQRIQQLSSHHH
# [4] = target: T3, Corticotropin-releasing factor receptor 2/Corticotropin-releasing factor-binding protein (Homo sapiens, UniProt P24387+Q13324); experiment: activators of CRF receptor 2 with binding protein – uHTS hits, confirmation (AID 602473); format: functional; conditions: read-out: EC50_Mean
# T3 sequence (Q13324 whole entry): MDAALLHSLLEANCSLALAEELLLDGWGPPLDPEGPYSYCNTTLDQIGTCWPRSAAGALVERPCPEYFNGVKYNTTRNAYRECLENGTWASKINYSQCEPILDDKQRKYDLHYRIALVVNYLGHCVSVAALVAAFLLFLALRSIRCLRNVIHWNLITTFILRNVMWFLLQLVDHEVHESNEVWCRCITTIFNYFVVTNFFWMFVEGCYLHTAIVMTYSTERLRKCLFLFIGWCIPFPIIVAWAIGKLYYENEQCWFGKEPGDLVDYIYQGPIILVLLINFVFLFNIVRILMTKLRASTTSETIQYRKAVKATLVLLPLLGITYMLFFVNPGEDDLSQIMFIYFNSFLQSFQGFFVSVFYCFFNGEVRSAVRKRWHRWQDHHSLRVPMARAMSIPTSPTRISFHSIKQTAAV
# T3 sequence (P24387 whole entry): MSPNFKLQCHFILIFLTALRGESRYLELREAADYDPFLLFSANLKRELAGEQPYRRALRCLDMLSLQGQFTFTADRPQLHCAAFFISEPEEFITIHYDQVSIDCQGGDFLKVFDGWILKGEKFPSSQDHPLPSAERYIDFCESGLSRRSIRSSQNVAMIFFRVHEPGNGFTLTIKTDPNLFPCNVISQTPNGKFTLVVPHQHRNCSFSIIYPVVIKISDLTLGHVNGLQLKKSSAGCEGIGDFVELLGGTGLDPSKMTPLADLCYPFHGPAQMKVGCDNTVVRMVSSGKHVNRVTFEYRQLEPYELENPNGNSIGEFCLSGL
# [5] = target: T4, Alkaline phosphatase, tissue-nonspecific isozyme (Homo sapiens, UniProt P05186); experiment: activation of tissue-nonspecific alkaline phosphatase – biochemical, TNAP isozyme, mouse IAP uHTS hits, selectivity assay for mouse IAP activator project, dose response (AID 488880); format: functional
# T4 sequence (P05186 whole entry): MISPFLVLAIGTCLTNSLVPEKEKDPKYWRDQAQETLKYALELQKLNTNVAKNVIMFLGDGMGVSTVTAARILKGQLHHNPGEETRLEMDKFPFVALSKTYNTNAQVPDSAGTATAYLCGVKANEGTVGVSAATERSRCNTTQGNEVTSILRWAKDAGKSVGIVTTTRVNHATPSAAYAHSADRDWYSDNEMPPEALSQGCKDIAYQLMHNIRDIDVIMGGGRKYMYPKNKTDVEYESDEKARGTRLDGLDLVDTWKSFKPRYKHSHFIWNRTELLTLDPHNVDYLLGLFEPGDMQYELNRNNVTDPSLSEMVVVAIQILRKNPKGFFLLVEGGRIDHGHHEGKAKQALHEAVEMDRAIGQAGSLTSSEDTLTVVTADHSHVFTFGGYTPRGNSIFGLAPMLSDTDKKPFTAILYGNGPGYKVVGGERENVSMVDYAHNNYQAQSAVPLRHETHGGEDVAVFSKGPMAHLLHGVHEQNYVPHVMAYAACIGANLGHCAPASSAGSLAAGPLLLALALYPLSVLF
# [6] = target: Induced myeloid leukemia cell differentiation protein Mcl-1 (Homo sapiens, UniProt Q07820); experiment: blockers of MCL1 binding to BIM peptide – biochemical, fluorescence polarization, BIM-BH3 peptide, 1536-well, dose response (AID 2217)
# Induced myeloid leukemia cell differentiation protein Mcl-1, sequence (Q07820 whole entry): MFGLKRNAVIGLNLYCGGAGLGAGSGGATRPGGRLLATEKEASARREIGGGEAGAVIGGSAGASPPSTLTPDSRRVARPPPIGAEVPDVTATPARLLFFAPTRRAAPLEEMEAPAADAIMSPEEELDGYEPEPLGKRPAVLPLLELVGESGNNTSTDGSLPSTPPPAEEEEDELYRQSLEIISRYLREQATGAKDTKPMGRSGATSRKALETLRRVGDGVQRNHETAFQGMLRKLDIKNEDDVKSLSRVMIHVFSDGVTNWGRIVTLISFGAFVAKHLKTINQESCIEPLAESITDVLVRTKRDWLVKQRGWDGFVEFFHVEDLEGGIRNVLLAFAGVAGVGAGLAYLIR
# [7] = target: Glucose-6-phosphate 1-dehydrogenase (Homo sapiens, UniProt P11413); experiment: inhibition of Homo sapiens G6PD, dose series – biochemical, fluorescence, selectivity assay for P. falciparum G6PD inhibitor project, dose response (AID 504792); format: functional
# Glucose-6-phosphate 1-dehydrogenase, sequence (P11413 whole entry): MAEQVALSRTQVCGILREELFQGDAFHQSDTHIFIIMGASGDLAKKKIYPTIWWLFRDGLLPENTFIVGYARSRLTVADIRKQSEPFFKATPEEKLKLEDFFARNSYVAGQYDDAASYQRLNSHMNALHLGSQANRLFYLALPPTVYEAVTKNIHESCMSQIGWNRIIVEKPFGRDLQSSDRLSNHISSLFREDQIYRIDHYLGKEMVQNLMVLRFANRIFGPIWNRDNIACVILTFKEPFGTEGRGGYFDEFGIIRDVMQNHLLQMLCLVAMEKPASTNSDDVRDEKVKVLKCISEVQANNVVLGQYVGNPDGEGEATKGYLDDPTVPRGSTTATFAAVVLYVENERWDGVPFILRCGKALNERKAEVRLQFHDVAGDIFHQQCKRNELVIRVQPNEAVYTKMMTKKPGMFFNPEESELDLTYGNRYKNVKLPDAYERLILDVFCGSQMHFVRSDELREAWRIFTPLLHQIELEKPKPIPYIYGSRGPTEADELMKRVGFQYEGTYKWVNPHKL
# [8] = target: Intestinal-type alkaline phosphatase (Homo sapiens, UniProt P09923); experiment: activation of human intestinal alkaline phosphatase – biochemical, dose response (AID 488873); format: functional
# Intestinal-type alkaline phosphatase (Homo sapiens, UniProt P09923), sequence (P09923 whole entry): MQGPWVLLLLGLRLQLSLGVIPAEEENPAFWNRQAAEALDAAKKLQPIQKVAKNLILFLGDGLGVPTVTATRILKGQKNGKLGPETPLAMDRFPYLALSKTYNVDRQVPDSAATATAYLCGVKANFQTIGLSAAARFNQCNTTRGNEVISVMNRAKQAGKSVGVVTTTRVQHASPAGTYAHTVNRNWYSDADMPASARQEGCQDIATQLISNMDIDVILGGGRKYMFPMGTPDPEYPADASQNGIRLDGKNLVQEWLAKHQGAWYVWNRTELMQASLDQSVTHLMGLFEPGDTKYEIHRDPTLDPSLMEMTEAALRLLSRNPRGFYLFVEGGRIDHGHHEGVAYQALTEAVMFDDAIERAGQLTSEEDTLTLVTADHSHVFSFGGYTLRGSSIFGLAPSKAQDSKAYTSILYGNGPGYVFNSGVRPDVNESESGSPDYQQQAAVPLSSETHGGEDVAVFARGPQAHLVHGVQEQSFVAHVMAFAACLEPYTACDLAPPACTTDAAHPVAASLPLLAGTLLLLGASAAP
# Vero = experiment: cells; format: functional; conditions: Chlorocebus sabaeus
# [9] = target: Heat shock protein HSP 90-alpha (Homo sapiens, UniProt P07900); format: functional, organism-based
# Large T antigen = Large T antigen (Simian virus 40, UniProt P03070); format: functional, Betapolyomavirus macacae;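 note: Confirmatory-stage PubChem screen for compounds that inhibit SV40 T antigen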
# Large T antigen, sequence (P03070 whole entry): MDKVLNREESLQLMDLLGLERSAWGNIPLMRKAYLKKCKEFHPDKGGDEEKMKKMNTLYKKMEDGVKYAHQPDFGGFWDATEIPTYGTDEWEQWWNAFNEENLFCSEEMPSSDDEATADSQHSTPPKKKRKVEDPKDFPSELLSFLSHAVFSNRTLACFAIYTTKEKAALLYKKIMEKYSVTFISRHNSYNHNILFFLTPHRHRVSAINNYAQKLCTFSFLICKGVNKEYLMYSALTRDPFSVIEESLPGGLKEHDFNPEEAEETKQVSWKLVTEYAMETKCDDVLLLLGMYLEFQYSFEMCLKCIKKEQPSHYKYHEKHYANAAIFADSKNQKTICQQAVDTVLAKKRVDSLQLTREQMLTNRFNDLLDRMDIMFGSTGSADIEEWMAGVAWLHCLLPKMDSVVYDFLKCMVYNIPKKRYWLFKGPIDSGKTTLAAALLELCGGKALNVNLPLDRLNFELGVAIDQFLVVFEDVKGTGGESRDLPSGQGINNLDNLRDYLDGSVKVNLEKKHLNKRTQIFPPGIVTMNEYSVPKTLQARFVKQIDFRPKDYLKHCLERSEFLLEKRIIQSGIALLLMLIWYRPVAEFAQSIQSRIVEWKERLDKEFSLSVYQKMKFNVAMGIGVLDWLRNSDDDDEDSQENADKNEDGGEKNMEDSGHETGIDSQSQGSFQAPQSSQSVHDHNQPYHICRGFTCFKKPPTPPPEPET
# Bcl-2-like protein 1 = Bcl-2-like protein 1 (Homo sapiens, UniProt Q07817); experiment: blockers of BCLXL peptide binding – biochemical, fluorescence polarization, 1536-well, selectivity assay for MCL1 inhibitor project, dose response (AID 2218)
# Bcl-2-like protein 1, sequence (Q07817 whole entry): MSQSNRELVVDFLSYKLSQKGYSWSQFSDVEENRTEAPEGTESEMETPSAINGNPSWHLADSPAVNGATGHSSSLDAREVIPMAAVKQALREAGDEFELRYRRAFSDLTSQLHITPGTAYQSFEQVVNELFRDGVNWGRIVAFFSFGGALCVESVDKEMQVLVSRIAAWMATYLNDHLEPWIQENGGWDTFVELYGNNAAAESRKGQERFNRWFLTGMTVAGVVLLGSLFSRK
# [10] = target: Intestinal-type alkaline phosphatase (Mus musculus, UniProt P24822); experiment: mouse intestinal alkaline phosphatase activators, dose response, biochemical, luminescence, uHTS hits (AID 488783); format: functional
# Intestinal-type alkaline phosphatase (Mus musculus, UniProt P24822), sequence (P24822 whole entry): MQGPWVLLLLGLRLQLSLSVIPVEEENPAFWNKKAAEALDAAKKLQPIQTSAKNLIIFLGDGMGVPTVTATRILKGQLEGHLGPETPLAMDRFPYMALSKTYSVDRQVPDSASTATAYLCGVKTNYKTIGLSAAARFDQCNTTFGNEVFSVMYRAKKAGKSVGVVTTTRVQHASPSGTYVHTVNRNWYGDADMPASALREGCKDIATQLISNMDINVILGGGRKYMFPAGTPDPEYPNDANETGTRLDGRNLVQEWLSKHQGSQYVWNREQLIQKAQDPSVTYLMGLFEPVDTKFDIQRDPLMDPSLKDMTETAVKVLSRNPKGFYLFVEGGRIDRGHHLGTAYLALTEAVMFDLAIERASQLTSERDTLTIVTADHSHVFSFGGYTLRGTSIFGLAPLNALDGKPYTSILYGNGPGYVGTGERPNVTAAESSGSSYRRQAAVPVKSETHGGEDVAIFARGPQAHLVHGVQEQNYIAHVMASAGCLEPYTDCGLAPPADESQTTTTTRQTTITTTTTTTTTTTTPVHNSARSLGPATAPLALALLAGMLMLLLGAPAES
# SUMO-activating enzyme = SUMO-activating enzyme (Homo sapiens, UniProt Q9UBT2); experiment: blockers of UBC9-mediated SUMO conjugation – biochemical, AlphaScreen, SUMOylation inhibitor project, confirmation (AID 2018); format: functional
# SUMO-activating enzyme, sequence (Q9UBE0 whole entry): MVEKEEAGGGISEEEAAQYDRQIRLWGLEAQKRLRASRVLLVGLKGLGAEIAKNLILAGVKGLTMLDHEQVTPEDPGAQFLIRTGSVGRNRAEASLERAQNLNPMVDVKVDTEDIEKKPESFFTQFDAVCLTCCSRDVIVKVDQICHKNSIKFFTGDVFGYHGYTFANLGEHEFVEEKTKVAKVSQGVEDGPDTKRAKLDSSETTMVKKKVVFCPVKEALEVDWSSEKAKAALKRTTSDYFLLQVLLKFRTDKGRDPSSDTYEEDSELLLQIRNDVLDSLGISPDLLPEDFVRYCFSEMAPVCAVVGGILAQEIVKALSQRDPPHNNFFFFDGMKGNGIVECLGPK
# SUMO-activating enzyme, sequence (Q9UBT2 whole entry): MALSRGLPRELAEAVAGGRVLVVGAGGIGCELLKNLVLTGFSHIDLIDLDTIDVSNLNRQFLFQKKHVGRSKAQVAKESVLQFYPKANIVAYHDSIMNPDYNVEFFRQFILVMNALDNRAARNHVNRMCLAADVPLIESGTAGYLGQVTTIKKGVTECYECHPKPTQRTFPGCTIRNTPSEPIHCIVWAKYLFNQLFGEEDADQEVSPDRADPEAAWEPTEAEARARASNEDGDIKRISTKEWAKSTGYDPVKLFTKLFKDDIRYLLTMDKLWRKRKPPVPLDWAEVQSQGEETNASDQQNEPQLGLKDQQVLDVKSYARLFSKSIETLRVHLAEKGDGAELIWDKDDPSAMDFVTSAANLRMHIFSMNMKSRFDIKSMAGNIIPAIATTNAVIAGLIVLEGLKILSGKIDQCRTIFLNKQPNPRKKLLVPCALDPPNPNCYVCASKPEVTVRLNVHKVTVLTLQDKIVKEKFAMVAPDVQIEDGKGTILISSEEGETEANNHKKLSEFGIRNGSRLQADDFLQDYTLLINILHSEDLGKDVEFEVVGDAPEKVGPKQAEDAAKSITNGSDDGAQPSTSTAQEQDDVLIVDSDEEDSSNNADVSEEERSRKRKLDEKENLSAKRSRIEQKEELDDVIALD
# Troponin, cardiac muscle = Troponin, cardiac muscle (Homo sapiens, UniProt P19429+P45379+P63316); experiment: Fluorescence-based biochemical high throughput dose response assay for activators of the calcium sensitivity of cardiac Regulated Thin Filaments (RTF). [Related pubchem assays (depositor defined):AID493008, AID493018, AID504382, AID504383]; format: protein-complex assay
# Peroxisome proliferator-activated receptor gamma, sequence (P37231 whole entry): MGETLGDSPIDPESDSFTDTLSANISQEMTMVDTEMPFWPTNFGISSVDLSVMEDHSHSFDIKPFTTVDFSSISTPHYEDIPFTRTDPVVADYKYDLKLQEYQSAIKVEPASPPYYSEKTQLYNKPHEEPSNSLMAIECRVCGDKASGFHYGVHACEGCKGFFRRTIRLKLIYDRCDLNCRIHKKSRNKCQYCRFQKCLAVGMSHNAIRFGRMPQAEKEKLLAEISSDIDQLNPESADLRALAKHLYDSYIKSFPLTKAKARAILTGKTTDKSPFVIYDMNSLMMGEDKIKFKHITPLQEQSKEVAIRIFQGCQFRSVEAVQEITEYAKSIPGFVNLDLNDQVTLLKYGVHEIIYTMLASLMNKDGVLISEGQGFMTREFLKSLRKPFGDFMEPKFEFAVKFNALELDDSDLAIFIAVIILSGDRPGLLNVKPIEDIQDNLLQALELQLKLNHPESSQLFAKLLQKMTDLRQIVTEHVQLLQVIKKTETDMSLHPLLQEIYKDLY
smiles,measurement,setting,value
COc1ccccc1N1C(=O)C2C(C(=O)c3ccccc3)=NN(c3ccc(C)cc3)C2C1=O (stereo not given),EC50,[1],1.7 µM (active)
same,EC50,[2],14.3 µM (active)
same,EC50,[3],13.7 µM (inconclusive)
same,EC50,[4],5.27 µM (active)
O=C1NC(=S)NC(=O)C1=Cc1ccc(Br)s1,EC50,[5],61.6 µM (active)
same,IC50,[6],> 12.1 µM (not active)
same,IC50,[7],36.4 µM (inactive)
same,EC50,[8],76.8 µM (active)
same,CC50,Vero,21.4 µM (active)
same,AC50,[9],25.6 µM (active)
same,IC50,Large T antigen,64.5 µM (active)
same,IC50,Bcl-2-like protein 1,> 109 µM (not active)
same,EC50,[10],59.7 µM (active)
Cn1c2ccccc2c2cnn(CC(=O)Nc3ccc(Cl)cc3)c(=O)c21,IC50,SUMO-activating enzyme,46 µM (active)
O=C(O)CCC(=O)Nc1cc(C(F)(F)F)cc(C(F)(F)F)c1,EC50,"Troponin, cardiac muscle",> 71.4 µM (inactive)
